Data taken from patent publication US4189433A, “4-Hydroxy-1,2-benzisothiazoles and their manufacture” (BASF Aktiengesellschaft, priority 1977, dated 1980).

How the values were obtained:
female Swiss mice = assay: in vivo; details: mouse
Description: (§1) The acute toxicity was determined on groups of 10 or 20 female Swiss mice weighing 20-26 g, the compounds being administered intraperitoneally.

in vivo = details: mouse
Description: as §1

[1] = target: T1, β2-receptors on the blood vessels (Rattus norvegicus, UniProt P10608); assay: β2-sympatholytic action: inhibition of Isoproterenol blood pressure reduction in rats under urethane narcosis; type: in vivo; details: for R.A. (relative activity), β2-sympatholytic action: Propranolol = 1.00; for R.A. (relative activity), β2-sympatholytic action / Q (footnote 6; numerically ED 50 β2 / ED 50 β1): intravenous; for Q (footnote 6; numerically ED 50 β2 / ED 50 β1): cardioselectivity quotient, rats
T1 construct: was tested on rats, weighing 230-280 g, under urethane narcosis; from tissue; host or cells: blood vessels in situ of urethane-anaesthetised rats (in vivo)
T1 sequence (P10608 whole entry): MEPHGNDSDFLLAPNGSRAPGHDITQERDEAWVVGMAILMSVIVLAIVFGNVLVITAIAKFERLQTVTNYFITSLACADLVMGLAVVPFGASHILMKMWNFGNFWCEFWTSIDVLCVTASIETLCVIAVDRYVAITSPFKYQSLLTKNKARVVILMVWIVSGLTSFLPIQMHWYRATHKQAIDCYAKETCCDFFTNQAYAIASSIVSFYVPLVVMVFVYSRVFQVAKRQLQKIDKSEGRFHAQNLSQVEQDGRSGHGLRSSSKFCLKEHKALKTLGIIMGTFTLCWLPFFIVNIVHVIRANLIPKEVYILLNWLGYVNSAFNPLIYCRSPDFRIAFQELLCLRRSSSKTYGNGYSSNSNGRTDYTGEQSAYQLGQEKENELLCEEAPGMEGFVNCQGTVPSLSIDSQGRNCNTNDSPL
Excerpt: (§2) The following are examples of compounds of the general formula III and/or of their acid addition salts with a physiologically safe acid: 4-(2-hydroxy-3-isopropylamino-propoxy)-1,2-benzisothiazole (III), 4-(2-hydroxy-3-tert.-butylaminopropoxy)-1,2-benzisothiazole (IV), 4-[2-hydroxy-3-(3-methylpentyl-3-amino)-propoxy]-1,2-benzisothiazole (VII), 4-[2-hydroxy-3-(2-methyl-butyl-2-amino)-propoxy]-1,2-benzisothiazole (VI), 4-[2-hydroxy-3-(2-methyl-3-but-2-ynylamino)-propoxy]-1,2-benzisothiazole (VIII), 4-(2-hydroxy-3-sec.-butylaminopropoxy-1,2-benzisothiazole (V), 4-[2-hydroxy-3-(1-methoxy-propyl-2-amino)-propoxy]-1,2-benzisothiazole (IX) and 4-[2-hydroxy-3-(pentyl-2-amino)-propoxy]-1,2-benzisothiazole (X).

cardiac β1-receptors = target: T2, cardiac β1-receptors (Rattus norvegicus, UniProt P18090); assay: β1-sympatholytic action: inhibition of Isoproterenol tachycardia in pithed rats; type: in vivo, rat (Sprague-Dawley; details: Propranolol = 1.00, intravenous
T2 construct: in pithed rats (Sprague-Dawley, Mus rattus; weight 230-280 g); from tissue; host or cells: heart in situ of pithed Sprague-Dawley rats (in vivo)
T2 sequence (P18090 whole entry): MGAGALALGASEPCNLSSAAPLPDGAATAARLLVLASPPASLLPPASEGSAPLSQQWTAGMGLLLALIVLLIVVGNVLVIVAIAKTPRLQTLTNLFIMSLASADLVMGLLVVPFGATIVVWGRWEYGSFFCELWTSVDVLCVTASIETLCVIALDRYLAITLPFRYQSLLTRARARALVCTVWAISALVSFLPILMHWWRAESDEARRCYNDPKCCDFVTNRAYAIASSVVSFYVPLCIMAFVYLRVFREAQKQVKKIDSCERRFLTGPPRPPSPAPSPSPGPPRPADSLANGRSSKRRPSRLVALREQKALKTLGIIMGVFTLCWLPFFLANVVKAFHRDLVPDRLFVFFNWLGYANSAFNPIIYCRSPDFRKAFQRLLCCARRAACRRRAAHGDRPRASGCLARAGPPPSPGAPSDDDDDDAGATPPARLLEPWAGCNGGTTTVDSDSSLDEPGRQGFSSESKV
Excerpt: as §2

[2] = Stability to light and to air; type: physicochemical; details: compared to 7-amino-4-hydroxy-1,2-benzisothiazole

SMILES | Therapeutic range, relative (female Swiss mice) | selectivity ratio (in vivo) | R.A. (relative activity), β2-sympatholytic action ([1]; rats under urethane narcosis) | Q (footnote 6; numerically ED 50 β2 / ED 50 β1) [1] | R.A. (relative activity), β1-sympatholytic action (cardiac β1-receptors) | reduction of the mean pressure of the carotid artery, average ([1]; Isoproterenol 0.215 μg/kg i.v., rats under urethane narcosis) [%] | stability to light and to air [2]
CC(C)NCC(O)COc1cccc2sncc12 (stereo not drawn) [Example III, 4-(2-hydroxy-3-isopropylamino-propoxy)-1,2-benzisothiazole] | 3.72 | 32700 | 2.71 | 2.21 | 6.47 | – | –
CCC(C)NCC(O)COc1cccc2sncc12 (stereo not drawn) [V, 4-(2-Hydroxy-3-sec.-butylamino-propoxy)-1,2-benzisothiazole] | 7.18 | – | 1.08 | 6.93 | 8.04 | – | –
CC(C)(C)NCC(O)COc1cccc2sncc12 (stereo not drawn) [IV, 4-(2-hydroxy-3-tert.-butylaminopropoxy)-1,2-benzisothiazole] | 10.76 | 94500 | 2.84 | 2.47 | 7.55 | – | –
CCCC(C)NCC(O)COc1cccc2sncc12 (stereo not drawn) [X, 4-[2-hydroxy-3-(pentyl-2-amino)-propoxy]-1,2-benzisothiazole] | 2.72 | – | 0.42 | 10.70 | 4.88 | – | –
C#CC(C)(C)NCC(O)COc1cccc2sncc12 (stereo not drawn) [VIII, 4-[2-hydroxy-3-(2-methyl-3-but-2-ynylamino)-propoxy]-1,2-benzisothiazole] | 9.11 | – | 1.98 | 2.50 | 5.35 | – | –
CC(C)NCC(O)c1ccc(O)c(O)c1 (stereo not drawn) [Isoproterenol, reference compound] | – | – | – | – | – | 30 | –
CCC(C)(C)NCC(O)COc1cccc2sncc12 (stereo not drawn) [VI, 4-[2-hydroxy-3-(2-methyl-butyl-2-amino)-propoxy]-1,2-benzisothiazole] | 8.92 | – | 1.38 | 4.48 | 6.68 | – | –
CC(=O)Nc1ccc(OC(C)=O)c2cnsc12 [7-acetamino-4-acetoxy-1,2-benzisothiazole] | – | – | – | – | – | – | increased stability to light and to air
COCC(C)NCC(O)COc1cccc2sncc12 (stereo not drawn) [IX, 4-[2-hydroxy-3-(1-methoxy-propyl-2-amino)-propoxy]-1,2-benzisothiazole] | 3.11 | – | 0.26 | 8.90 | 2.48 | – | –
CCC(C)(CC)NCC(O)COc1cccc2sncc12 (stereo not drawn) [VII, 4-[2-hydroxy-3-(3-methylpentyl-3-amino)-propoxy]-1,2-benzisothiazole] | 4.44 | – | 0.94 | 3.69 | 3.75 | – | –
